Results reported in patent US6916471B2, “Red blood cells loaded with S-nitrosothiol and uses therefor” (Duke University, priority 1995, dated 2005).
Values joined by “and” are separate entries in the source; they are usually repeats but may differ in a detail not shown here. Equal values may be shown once.

How the values were obtained:
[1] = test system: rabbit thoracic aorta rings; assay: Rabbit aortic ring bioassay: native and blocked Hb preparations, vessel tone and ACh (EDRF) relaxation; details: 1 μM
Text: Hb-mediated inhibition of endothelium-dependent relaxations is commonly used as a marker of NO responses. Inasmuch as reactions with either metal or thiol centers of Hb should lead to attenuated NO/EDRF (endothelium-derived relaxing factor) responses, we attempted to elucidate the molecular basis of inhibition. Hb preparations in which β93 thiol groups had been blocked with N-ethylmaleimide (NEM) or the hemes blocked by cyanmet (FeIIICN)-derivitization were studied in an aortic ring bioassay, and their activities compared with that of native Hb. Both cyanmet-Hb and NEM-Hb caused increases in vessel tone and attenuated acetylcholine (EDRF)-mediated relaxations (FIG. 3B). […] To verify formation of an S-nitrosothiol in Hb, we established a bioassay in which 2 cm segments of thoracic aorta were interposed in Tygon tubing, through which 3 cc of Krebs solution containing Hb (4 μM) and ACh (2 μM) were circulated by roller pump (1.5 cc/min×5 min).
The effects of native Hb on EDRF responses were compared with Hb preparations in which the thiol or heme centers had been blocked by alkylation or cyanmet derivitization, respectively. All preparations of Hb elicited contractions; however, those of native Hb (in which both SH and metal centers are free for interaction) were most pronounced. […] Relaxations were inhibited to lesser degrees by cyanmet Hb (CN-Hb)(in which hemes were blocked from reaction) and NEM-Hb (in which thiol groups were alkylated by N-ethylmaleimide). […] Direct measurement of SNO-Hb, formed from EDRF under similar conditions, is described in Example 8.
Descending rabbit thoracic aorta were cut into 3 mm rings and mounted on stirrups attached to force transducers (model FT03, Grass Instruments, Quincy, Mass.) for measurement of isometric tone. The details of this bioassay system have been previously described (Stamler, J. S., et al., Proc. Natl. Acad. Sci. USA 89:444-448 (1992)). Cyanmet Hb was prepared from human HbA according to published protocols (Kilbourn, R. G. et al. Biochem. Biophy. Res. Comm. 199:155-162, (1994)). Alkylation of HbA with N-ethylmaleimide was followed by desalting across G-25 Sephadex to remove excess NEM. Removal of unmodified Hbcysβ93 was achieved by passage through Hg-containing affinity columns. The alkylation of free SH groups was verified using 5,5′-dithio-bis[2-nitrobenzoic acid].

rat red blood cells = assay: S-nitrosylation of intraerythrocytic Hb (loading of red blood cells); type: cell-based; details: for formation of intraerythrocytic SNO-Hb: oxygenated rat red blood cells
Description: Given that Hb is largely contained within red blood cells, potential mechanisms by which S-nitrosylation of intracellular protein might occur were explored. […] Rapid oxidation of Hb was not observed under these conditions. […] Thus, erythrocyte access of RSNOs is thiol group specific.
Incubation of rat erythrocytes with S-nitrosocysteine (equimolar to heme (5 mM); phosphate buffer pH 7.4, 25° C.) leads to rapid formation of intracellular SNO-Hb(FeII)O2. […] By 60 min, 3 of the 4 available SH groups of Hb are S-nitrosylated (note that rat Hb contains 4 reactive SH groups). […] Spectrum A is that of SNO-Hb isolated from erythrocytes following G-25 chromatography. Treatment of A with dithionite results in reduction of the S—NO moiety, liberating free NO which is autocaptured by deoxy Hb, forming Hb(FeII)NO (note that dithionite simultaneously deoxygenates Hb) (spectrum C). […] The spectrum of Hb(FeII)NO containing 4 NO's per tetramer is shown for comparison (inset, spectrum B).
At shown intervals, red blood cells were pelleted rapidly by centrifugation, washed three times, lysed in deionized water at 4° C., and the cytosolic fraction subjected to rapid desalting across G-25 columns. Intracellular SNO-Hb was measured by the method of Saville (Gaston, B., et al., (1992); Stamler, J. S., et al., Proc. Natl. Acad. Sci. USA, 89:444-448 (1992)), and confirmed spectroscopically (inset of FIG. 3A) as described above.

vascular ring = assay: Vessel ring bioassay of SNO-Hb preparations, with or without glutathione; details: for effect of added glutathione on the dose-response: glutathione 100 μM in bioassay chambers
Text: Arterial red blood cells contain two physiologically important forms of hemoglobin: Hb(FeII)O2 and Hb(FeIII) (Antonini et al. (1971)). […] Such findings raise the possibility of functional consequences, perhaps influenced by the redox state of heme and its occupation by ligand.
Details of the vessel ring bioassay have been published (Stamler, J. S., et al., Proc. Natl. Acad. Sci. USA 89:444-448 (1992)). SNO-Hb(FeII)O2 preparations were synthesized with 10-fold excess S-nitrosocysteine (CYSNO) over Hb(FeII)O2 protein (2% borate, 0.5 mM EDTA, ˜15 min incubation), after which desalting was performed across Sephadex G-25 columns. CYSNO was synthesized in 0.5 N HCl, 0.5 mM EDTA and then neutralized (1:1) in 1 M phosphate buffer containing 0.5 mM EDTA. […] The latter was synthesized by treatment of Hb(FeII)O2 with excess ferricyanide, followed by desalting across G-25 columns. SNO-Hb concentrations were verified spectroscopically and the S-nitrosothiol content was determined by the method of Saville (Stamler, J. S., et al., Proc. Nat. Acad. Sci. USA 89:444-448 (1992)). The S-NO/tetramer stoichiometry for both SNO-Hb preparations was ˜2. Oxidation of the heme was undetectable by uv-spectrophotometric methods.

Sprague-Dawley rat = assay: Mean arterial pressure after femoral vein bolus of cell-free Hb and SNO-Hbs; type: in vivo
Text: Systemic administration of cell-free Hb results in hypertensive responses which have been attributed to NO scavenging by the heme (Vogel, W. M., et al., Am. J. Physiol. 251:H413-H420 (1986); Olsen, S. B., et al., Circulation 93:329-332 (1996)). To determine if SNO-Hb is free of this adverse affect, and to explore if in vitro mechanisms of NO release extend to the in vivo circumstance, we compared responses to Hb and SNO-Hb infused as a bolus into the femoral vein of anesthetized rats. […] Thus, the profiles of these compounds in vivo closely resemble those seen in vitro (FIG. 4A). […] These changes in mean blood pressure of ˜10% are on the order of those that differentiate normotension from hypertension in man, and in the therapeutic range of some antihypertensive regimens. […] The bioactivity of SNO-Hb in blood, where S—NO/heme stoichiometries approach 1:50,000, is a dramatic illustration of the resistence of this NO-related activity to Hb(Fe) inactivation.
Administration of 2-200 nmol/kg Hb(FeII)O2 (as a bolus) into the femoral vein of a Sprague-Dawley rat is shown to increase mean arterial pressure in a dose-dependent manner. At 200 nmol/kg, mean arterial pressure increased by 25 mm Hg (20±3 mm Hg; n=4; P<0.05). Elevations in blood pressure reversed within 10-15 min. SNO-Hb(FeII)O2 infusions (over the same dose range) are shown to ameliorate Hb(FeII)O2-induced hypertension without causing overt changes in blood pressure. […] A fall in blood pressure was also seen with injection of erythrocytes containing SNO-Hb.
Rats were anesthetized by intraperitoneal injection of pentobarbital and the femoral arteries and veins accessed by local cut down. The artery was then cannulated and the blood pressure monitored continuously using a Viggo Spectramed pressure transducer attached to a Gould recorder. An IBM PC (DATA Q Codas) was used for data acquisition.

[2] = test system: rabbit thoracic aorta rings; assay: Oxygen-dependent rabbit aortic ring bioassay of Hb, SNO-Hb, GSNO and SNO-RBCs
Sprague-Dawley rats = assay: Local cerebral blood flow by H2-sensitive microelectrodes; type: in vivo, rat; details: 1 μmol/kg infused over 3 minutes
Description: Adult male Sprague-Dawley rats (290-350 g) were anesthetized with sodium pentobarbital (50 mg/kg IP), intubated and ventilated with a small animal respirator (Edco Scientific Inc., Chapel Hill, N.C.) at a rate and tidal volume to maintain normal values of PaCO2 (35-45 mm Hg; PaCO2=systemic arterial blood carbon dioxide tension). The femoral vein and artery were cannulated for infusion of drugs and for continuous monitoring of systemic blood pressure, respectively. Aliquots of arterial blood (200 μl) were drawn periodically to measure blood gas tensions and pH (Instrumentation Laboratory Co., model 1304 blood gas/pH analyzer). The blood was replaced intravenously with three volumes of normal saline. The inspired O2 concentration was varied using premixed gases balanced with nitrogen. The tissue PO2 was measured continuously with polarographic platinum microelectrodes (50 μm O.D. coated with hydrophobic gas permeable Nafion) implanted stereotaxically in both the right and left hippocampus (AP−3.4 mm, ML+2.2 mm), caudate putamen nucleus and substantia nigra (see coordinates below) (Young, W., Stroke, 11:552-564 (1980); Heiss, W. D. and Traupett, H., Stroke, 12:161-167 (1981); Dewhirst, M. W. et al., Cancer Res., 54:3333-3336 (1994); Kerger, H. et al., Am. J. Physiol., 268:H802-H810 (1995)). The PO2 electrodes were polarized to −0.65V against a distant Ag/AgCl reference located on the tail and the current flow was measured using a low-impedance nA-meter. Regional arterial PO2 was adjusted by changing the inspired O2 concentration and atmospheric pressure.
Polarographic hydrogen (H2)-sensitive microelectrodes were implanted stereotaxically in the substantia nigra (AP −5.3 mm, ML −2.4 mm to the bregma, depth 3.2 mm), caudate putamen nucleus (CPN) (AP +0.8 mm, ML −2.5 mm, depth 5.2 mm) and parietal cortex, for measurement of regional blood flow (Young, W., Stroke, 11:552-564 (1980); Heiss, W. D. and Traupett, H., Stroke, 12:161-167 (1981)). The microelectrodes were made from platinum wire and insulated with epoxy, with the exception of the tip (1 mm) which was coated with Nafion. For placement, the electrodes were mounted on a micromanipulator and the rat's head was immobilized in a Kopf stereotaxic frame. H2-sensitive electrodes were polarized to +400 mV against a distant reference electrode on the tail, and the polarographic current was measured using a low-impedance nA meter during and after the inhalation of hydrogen gas (2.5%) for 1 min. Both the hydrogen clearance curves and voltage for oxygen measurements were made using PC WINDAQ (software, DI-200 AC, Dataq Instruments, Inc., Akron, Ohio). Cerebral blood flow was calculated using the initial slope method (Young, W., Stroke, 11:552-564 (1980); Heiss, W. D. and Traupett, H., Stroke, 12:161-167 (1981)). Regional blood flow responses were monitored for 30 min. prior to and 30 min. following drug administration; hemoglobins were given at time 0.
The cerebrovascular effects of SNO-Hb were measured in adult male Sprague-Dawley rats using O2 and H2 (blood flow)-sensitive microelectrodes that were placed stereotaxically in several regions of the brain as for Example 11.
Comparative effects of SNO-Hb (●) and Hb (▪) (1 μmol/kg infused over 3 minutes) on local blood flow in substantia nigra (SN), caudate putamen nucleus, and parietal cortex are shown for three different conditions. […] Baseline blood flow was decreased by ˜10% under 100% O2+3 ATA as compared to 100% O2. n=7 for all data points. Values of tissue/microvascular PO2 ranged from 19-37 mm Hg in 21% O2; from 68-138 mm Hg in 100% O2; and from 365-538 mm Hg in 100%+3 ATA (Duke University Medical Center Hyperbaric Chambers).

CC(=O)OCC[N+](C)(C)C [ACh, acetylcholine]
% ACh RELAXATION [1]: 98.3 ± 0.6 (n = 10) %

[N]=O [NO, nitric oxide, reference compound]
formation of intraerythrocytic SNO-Hb (rat red blood cells): primarily in metHb formation

N[C@@H](CSN=O)C(=O)O [S-nitrosocysteine]
SH groups of Hb S-nitrosylated (rat red blood cells; of the 4 available SH groups of rat Hb, by 60 min, equimolar to heme (5 mM), pH 7.4, 25° C.): 3 | formation of intraerythrocytic SNO-Hb (rat red blood cells): very rapid formation of intracellular SNO-Hb(FeII)O2

N[C@@H](CSN=O)C(=O)NCC(=O)O [S-nitrosocysteinylglycine]
formation of intraerythrocytic SNO-Hb (rat red blood cells): Intraerythrocytic SNO-Hb also formed

N[C@@H](CCSN=O)C(=O)O [S-nitrosohomocysteine]
formation of intraerythrocytic SNO-Hb (rat red blood cells): Intraerythrocytic SNO-Hb also formed

CN-Hb: cyanmet Hb, in which hemes were blocked from reaction
% ACh RELAXATION [1]: 80.7 ± 1.0 † (n = 4) % | % INCREASE IN TENSION [1]: 12.9 ± 3.0 (n = 6) %

Hb(FeII)O2: oxyhemoglobin, cell-free [reference compound]
effect of added glutathione on the dose-response (vascular ring): did not significantly influence the response | increase in mean arterial pressure (Sprague-Dawley rat; 200 nmol/kg bolus, femoral vein, anesthetized rat): 20±3 mm Hg and 25 mm Hg | time for elevations in blood pressure to reverse (Sprague-Dawley rat; 2-200 nmol/kg bolus): 10 to 15 min

Hb: native cell-free human hemoglobin purified from red cells [reference compound]
% ACh RELAXATION [1]: 31.9 ± 6.9 (n = 7) % | % INCREASE IN TENSION [1]: 40.8 ± 2.3 (n = 7) % | effect on tone of rings contracted with phenylephrine under hypoxia ([2]; 1 μM, 6-7 torr): progressive increases in vessel tone | local cerebral blood flow (Sprague-Dawley rats; 21% O2): decreased local blood flow | local cerebral blood flow (Sprague-Dawley rats; 100% O2): decrease in flow was preserved | local cerebral blood flow (Sprague-Dawley rats; 100% O2+3 ATA): tended to decrease cerebral flow to similar extents

NEM-Hb: Hb in which thiol groups were alkylated by N-ethylmaleimide
% ACh RELAXATION [1]: 60.5 ± 3.9 (n = 7) % | % INCREASE IN TENSION [1]: 29.4 ± 1.3 (n = 7) %

SNO-Hb(FeII)O2: S-nitroso-oxyhemoglobin
effect of added glutathione on the dose-response (vascular ring): potentiates the dose-response | activity in vascular ring bioassay (vascular ring; no glutathione): modest NO-like activity | blood pressure response (Sprague-Dawley rat; bolus, femoral vein, anesthetized rat): did not exhibit hypertensive effects

deoxyHb: deoxygenated hemoglobin [reference compound]
effect on vessel tone in T-structure ([2]; <1% O2 (˜6 torr)): powerful contractile agent
